Reference: ChEMBL document CHEMBL4428052, “Substrate-Guided Design of Selective FXIIa Inhibitors Based on the Plant-Derived Momordica cochinchinensis Trypsin Inhibitor-II (MCoTI-II) Scaffold” (J Med Chem, 2016)
Peptide text beside a SMILES is read from it.

How the values were obtained:
Coagulation factor XII = molecular target: T1, Coagulation factor XII (Homo sapiens, UniProt P00748); assay: Inhibition of factor 12a (unknown origin) using Ac-QRFRpNA as substrate incubated for 30 mins measured for 7 mins by morrison plot analysis
T1 sequence (P00748 whole entry): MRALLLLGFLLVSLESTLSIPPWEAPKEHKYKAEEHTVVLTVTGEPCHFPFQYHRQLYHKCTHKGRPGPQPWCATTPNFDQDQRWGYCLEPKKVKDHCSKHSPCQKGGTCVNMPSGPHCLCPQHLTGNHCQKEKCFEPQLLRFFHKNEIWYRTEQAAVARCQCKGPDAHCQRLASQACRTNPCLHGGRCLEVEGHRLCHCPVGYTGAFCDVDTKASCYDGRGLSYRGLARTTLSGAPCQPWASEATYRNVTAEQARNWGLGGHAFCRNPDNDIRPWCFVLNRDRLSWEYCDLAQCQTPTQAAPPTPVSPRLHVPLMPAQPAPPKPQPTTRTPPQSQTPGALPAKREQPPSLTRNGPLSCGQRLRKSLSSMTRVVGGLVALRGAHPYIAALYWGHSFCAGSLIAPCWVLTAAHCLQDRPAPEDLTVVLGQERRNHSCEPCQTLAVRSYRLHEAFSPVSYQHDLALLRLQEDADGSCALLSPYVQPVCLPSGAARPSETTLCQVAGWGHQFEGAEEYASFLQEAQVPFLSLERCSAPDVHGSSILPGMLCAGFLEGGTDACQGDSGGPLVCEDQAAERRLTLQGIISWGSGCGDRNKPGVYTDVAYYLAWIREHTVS

Coagulation factor IX = Coagulation factor IX (Homo sapiens, UniProt P00740); assay: Inhibition of factor 9a (unknown origin) using Ac-QGRpNA as substrate incubated for 30 mins measured for 7 mins by morrison plot analysis
Coagulation factor XI = Coagulation factor XI (Homo sapiens, UniProt P03951); assay: Inhibition of factor 11a (unknown origin) using Bz-FVRpNA as substrate incubated for 30 mins measured for 7 mins by morrison plot analysis
Plasminogen = Plasminogen (Homo sapiens, UniProt P00747); assay: Inhibition of plasmin (unknown origin) using Ac-RM(O2)YRpNA as substrate incubated for 30 mins measured for 7 mins by morrison plot analysis
Trypsin = Trypsin (Homo sapiens, UniProt P07477+P07478+P35030); assay: Inhibition of trypsin (unknown origin) using Bz-FVRpNA as substrate incubated for 30 mins measured for 7 mins by morrison plot analysis; type: protein assay
Plasma kallikrein = Plasma kallikrein (Homo sapiens, UniProt P03952); assay: Inhibition of human plasma kallikrein using Ac-RM(O2)YRpNA as substrate incubated for 30 mins measured for 7 mins by morrison plot analysis
[1] = molecular target: Tissue-type plasminogen activator (Homo sapiens, UniProt P00750); assay: Inhibition of tPA (unknown origin) incubated for 30 mins measured for 7 mins by morrison plot analysis
Coagulation factor X = Coagulation factor X (Homo sapiens, UniProt P00742); assay: Inhibition of factor 10a (unknown origin) using Ac-QRSRpNA as substrate incubated for 30 mins measured for 7 mins by morrison plot analysis
Prothrombin = Prothrombin (Homo sapiens, UniProt P00734); assay: Inhibition of thrombin (unknown origin) using Ac-ATPRpNA as substrate incubated for 30 mins measured for 7 mins by morrison plot analysis
[2] = molecular target: Urokinase-type plasminogen activator (Homo sapiens, UniProt P00749); assay: Inhibition of uPA (unknown origin) incubated for 30 mins measured for 7 mins by morrison plot analysis
Homo sapiens = organism: Homo sapiens; assay: Selectivity ratio of Ki for factor 10a (unknown origin) to Ki for factor 12a (unknown origin)

Plasma kallikrein, sequence (P03952 20-390 limits assumed): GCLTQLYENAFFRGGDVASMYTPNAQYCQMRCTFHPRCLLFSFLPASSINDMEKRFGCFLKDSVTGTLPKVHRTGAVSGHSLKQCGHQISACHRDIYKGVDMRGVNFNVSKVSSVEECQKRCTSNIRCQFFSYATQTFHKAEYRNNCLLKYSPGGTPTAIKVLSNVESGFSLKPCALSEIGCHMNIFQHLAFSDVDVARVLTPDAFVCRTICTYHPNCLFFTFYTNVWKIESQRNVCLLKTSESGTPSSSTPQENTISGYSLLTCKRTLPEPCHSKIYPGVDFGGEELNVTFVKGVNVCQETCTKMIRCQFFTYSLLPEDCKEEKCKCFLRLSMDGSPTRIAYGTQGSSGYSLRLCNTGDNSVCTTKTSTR
Plasma kallikrein, sequence (P03952 391-638 limits assumed): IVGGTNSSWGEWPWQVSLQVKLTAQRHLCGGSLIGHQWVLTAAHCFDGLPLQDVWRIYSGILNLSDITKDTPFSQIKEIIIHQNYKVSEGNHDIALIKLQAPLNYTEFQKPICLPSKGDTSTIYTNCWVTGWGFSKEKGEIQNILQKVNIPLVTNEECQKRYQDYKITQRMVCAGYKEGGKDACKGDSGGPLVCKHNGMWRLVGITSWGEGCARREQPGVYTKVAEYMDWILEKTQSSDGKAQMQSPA
Coagulation factor XI, sequence (P03951 19-387 limits assumed): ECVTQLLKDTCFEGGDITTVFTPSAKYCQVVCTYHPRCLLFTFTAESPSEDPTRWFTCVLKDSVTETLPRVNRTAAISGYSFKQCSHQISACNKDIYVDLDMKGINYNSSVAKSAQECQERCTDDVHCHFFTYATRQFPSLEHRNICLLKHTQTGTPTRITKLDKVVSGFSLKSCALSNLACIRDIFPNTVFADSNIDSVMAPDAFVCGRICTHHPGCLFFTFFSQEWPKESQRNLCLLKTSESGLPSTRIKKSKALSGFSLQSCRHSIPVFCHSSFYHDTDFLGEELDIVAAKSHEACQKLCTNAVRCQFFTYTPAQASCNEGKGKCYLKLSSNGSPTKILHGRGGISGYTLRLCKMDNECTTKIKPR
Coagulation factor XI, sequence (P03951 388-625 limits assumed): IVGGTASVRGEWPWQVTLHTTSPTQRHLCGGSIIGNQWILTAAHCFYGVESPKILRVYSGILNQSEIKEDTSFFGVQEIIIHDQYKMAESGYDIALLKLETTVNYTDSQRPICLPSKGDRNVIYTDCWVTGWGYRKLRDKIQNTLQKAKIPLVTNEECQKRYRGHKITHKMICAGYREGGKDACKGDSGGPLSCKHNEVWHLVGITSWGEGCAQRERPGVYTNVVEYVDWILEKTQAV
Tissue-type plasminogen activator, sequence (P00750 whole entry): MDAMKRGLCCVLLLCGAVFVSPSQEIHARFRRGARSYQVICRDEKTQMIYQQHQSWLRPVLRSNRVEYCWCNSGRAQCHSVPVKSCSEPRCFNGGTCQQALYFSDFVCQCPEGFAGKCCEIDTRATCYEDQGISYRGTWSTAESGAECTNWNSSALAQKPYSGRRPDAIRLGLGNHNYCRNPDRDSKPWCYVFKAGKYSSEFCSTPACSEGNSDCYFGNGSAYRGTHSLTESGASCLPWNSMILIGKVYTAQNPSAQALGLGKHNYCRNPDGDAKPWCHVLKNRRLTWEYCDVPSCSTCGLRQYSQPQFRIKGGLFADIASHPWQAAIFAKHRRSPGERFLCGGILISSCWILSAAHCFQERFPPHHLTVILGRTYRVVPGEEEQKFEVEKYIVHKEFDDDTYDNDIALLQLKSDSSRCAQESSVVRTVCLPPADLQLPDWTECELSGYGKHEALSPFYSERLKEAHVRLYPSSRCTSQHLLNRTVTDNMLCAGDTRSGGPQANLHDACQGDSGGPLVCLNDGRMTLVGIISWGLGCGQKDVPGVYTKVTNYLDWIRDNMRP
Coagulation factor X, sequence (P00742 41-179 limits assumed): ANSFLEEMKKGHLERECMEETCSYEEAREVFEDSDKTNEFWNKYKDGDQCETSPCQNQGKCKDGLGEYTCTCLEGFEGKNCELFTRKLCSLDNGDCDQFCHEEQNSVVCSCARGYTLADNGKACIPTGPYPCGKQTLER
Coagulation factor X, sequence (P00742 235-488 limits assumed): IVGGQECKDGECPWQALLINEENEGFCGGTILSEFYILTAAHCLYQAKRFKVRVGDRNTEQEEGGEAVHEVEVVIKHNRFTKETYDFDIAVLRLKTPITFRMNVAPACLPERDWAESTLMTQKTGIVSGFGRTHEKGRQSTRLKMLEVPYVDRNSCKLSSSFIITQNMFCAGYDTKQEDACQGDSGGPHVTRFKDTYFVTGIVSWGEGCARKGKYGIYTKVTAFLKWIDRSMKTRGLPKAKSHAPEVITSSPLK
Plasminogen, sequence (P00747 97-580 limits assumed): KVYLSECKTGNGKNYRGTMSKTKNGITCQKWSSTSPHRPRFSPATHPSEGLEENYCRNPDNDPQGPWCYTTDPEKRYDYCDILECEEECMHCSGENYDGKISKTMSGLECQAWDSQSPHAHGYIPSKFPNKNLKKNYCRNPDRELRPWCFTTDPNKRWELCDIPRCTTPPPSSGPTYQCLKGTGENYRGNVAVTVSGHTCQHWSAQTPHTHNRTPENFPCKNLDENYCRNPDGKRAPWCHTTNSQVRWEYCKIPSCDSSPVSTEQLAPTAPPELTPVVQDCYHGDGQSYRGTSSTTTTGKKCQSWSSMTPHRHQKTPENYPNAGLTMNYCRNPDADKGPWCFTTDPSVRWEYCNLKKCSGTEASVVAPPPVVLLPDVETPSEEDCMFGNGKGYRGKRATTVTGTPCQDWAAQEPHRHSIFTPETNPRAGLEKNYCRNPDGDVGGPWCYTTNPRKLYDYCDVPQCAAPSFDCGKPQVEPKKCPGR
Plasminogen, sequence (P00747 581-810 limits assumed): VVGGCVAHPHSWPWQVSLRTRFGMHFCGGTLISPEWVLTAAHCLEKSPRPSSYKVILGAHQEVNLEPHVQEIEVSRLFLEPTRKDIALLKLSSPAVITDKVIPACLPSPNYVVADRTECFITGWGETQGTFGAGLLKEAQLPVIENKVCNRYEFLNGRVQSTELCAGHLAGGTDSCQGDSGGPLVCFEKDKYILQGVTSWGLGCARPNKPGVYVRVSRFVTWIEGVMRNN
Coagulation factor IX, sequence (P00740 47-191 limits assumed): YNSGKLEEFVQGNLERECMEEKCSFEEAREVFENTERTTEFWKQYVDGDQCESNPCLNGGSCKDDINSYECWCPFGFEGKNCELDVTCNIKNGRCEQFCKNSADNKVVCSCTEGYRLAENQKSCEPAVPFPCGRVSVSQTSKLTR
Coagulation factor IX, sequence (P00740 227-461 limits assumed): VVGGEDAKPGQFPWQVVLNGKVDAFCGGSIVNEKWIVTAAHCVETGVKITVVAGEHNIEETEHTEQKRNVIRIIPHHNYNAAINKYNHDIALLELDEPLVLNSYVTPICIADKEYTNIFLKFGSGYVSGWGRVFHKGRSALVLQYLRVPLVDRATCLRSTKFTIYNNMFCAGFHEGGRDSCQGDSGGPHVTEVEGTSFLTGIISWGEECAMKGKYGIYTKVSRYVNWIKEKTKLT

Row | SMILES | Ki (Coagulation factor XII) | Ki (Coagulation factor IX) | Ki (Coagulation factor XI) | Ki (Plasminogen) | Ki (Trypsin) | Ki (Plasma kallikrein) | Ki [1] | Ki (Coagulation factor X) | Ki (Prothrombin) | Ki [2] | Ratio Ki (Homo sapiens)
1 | CC[C@H](C)[C@@H]1NC(=O)[C@@H]2CSSC[C@H](NC(=O)[C@H](CCC(N)=O)NC(=O)CNC(=O)CN)C(=O)N[C@@H](Cc3ccccc3)C(=O)N[C@@H](CCCNC(=N)N)C(=O)N[C@@H]([C@@H](C)CC)C(=O)N[C@@H](Cc3c[nH]c4ccccc34)C(=O)N[C@@H](CCCCN)C(=O)N[C@@H](CCCCN)C(=O)N[C@H]3CSSC[C@H](NC1=O)C(=O)N[C@@H](CCCNC(=N)N)C(=O)NCC(=O)N[C@@H](CC(N)=O)C(=O)NCC(=O)N[C@@H](Cc1ccc(O)cc1)C(=O)N[C@H](C(=O)NCC(=O)N[C@@H](CO)C(=O)NCC(=O)N[C@@H](CO)C(=O)N[C@@H](CC(=O)O)C(=O)O)CSSC[C@H](NC(=O)[C@H](CC(=O)O)NC(=O)[C@H](CO)NC(=O)[C@H](CC(=O)O)NC(=O)[C@H](CCCNC(=N)N)NC(=O)[C@H](CCCNC(=N)N)NC3=O)C(=O)N1CCC[C@H]1C(=O)NCC(=O)N[C@@H](C)C(=O)N2 | 0.51 µM | > 10 µM | > 10 µM | 1.5 µM | 2.24 µM | > 10 µM | > 10 µM | – | – | – | –
2 | CC[C@H](C)[C@@H]1NC(=O)[C@H](CCCNC(=N)N)NC(=O)[C@H](Cc2ccccc2)NC(=O)[C@H](NC(=O)[C@H](CCC(N)=O)NC(=O)CNC(=O)CN)CSSC[C@H]2NC(=O)[C@H](C)NC(=O)CNC(=O)[C@@H]3CCCN3C(=O)[C@@H]3CSSC[C@H](C(=O)NCC(=O)N[C@@H](CO)C(=O)NCC(=O)N[C@@H](CO)C(=O)N[C@@H](CC(=O)O)C(=O)O)NC(=O)[C@H](Cc4ccc(O)cc4)NC(=O)CNC(=O)[C@H](CC(N)=O)NC(=O)CNC(=O)[C@H](CCCNC(=N)N)NC(=O)[C@H](CSSC[C@H](NC(=O)[C@H](CCCCN)NC(=O)[C@H](CCCCN)NC(=O)[C@H](Cc4c[nH]c5ccccc45)NC1=O)C(=O)N[C@@H](CCCNC(=N)N)C(=O)N[C@@H](CCCNC(=N)N)C(=O)N[C@@H](CC(=O)O)C(=O)N[C@@H](CO)C(=O)N[C@@H](CC(=O)O)C(=O)N3)NC(=O)[C@H]([C@@H](C)CC)NC2=O | – | – | – | – | – | – | – | > 100 µM | > 10 µM | > 10 µM | –
3 | CC[C@H](C)[C@@H]1NC(=O)[C@@H]2CSSC[C@H](NC(=O)[C@@H](NC(=O)CNC(=O)CN)C(C)C)C(=O)N3CCC[C@H]3C(=O)N[C@@H](CCCCN)C(=O)N[C@@H]([C@@H](C)CC)C(=O)N[C@@H](CC(C)C)C(=O)N[C@@H](CCCCN)C(=O)N[C@@H](CCCCN)C(=O)N[C@H]3CSSC[C@H](NC1=O)C(=O)N[C@@H](CCCNC(=N)N)C(=O)NCC(=O)N[C@@H](CC(N)=O)C(=O)NCC(=O)N[C@@H](Cc1ccc(O)cc1)C(=O)N[C@H](C(=O)NCC(=O)N[C@@H](CO)C(=O)NCC(=O)N[C@@H](CO)C(=O)N[C@@H](CC(=O)O)C(=O)O)CSSC[C@H](NC(=O)[C@H](CC(=O)O)NC(=O)[C@H](CO)NC(=O)[C@H](CC(=O)O)NC(=O)[C@H](CCCNC(=N)N)NC(=O)[C@H](CCCNC(=N)N)NC3=O)C(=O)N1CCC[C@H]1C(=O)NCC(=O)N[C@@H](C)C(=O)N2 | 0.75 µM | > 10 µM | > 10 µM | 0.028 µM | 0.00016 µM | > 10 µM | > 10 µM | – | – | – | –
4 | CC[C@H](C)[C@@H]1NC(=O)[C@H](CCCNC(=N)N)NC(=O)[C@H](CO)NC(=O)[C@H](NC(=O)[C@H](CCC(N)=O)NC(=O)CNC(=O)CN)CSSC[C@H]2NC(=O)[C@H](C)NC(=O)CNC(=O)[C@@H]3CCCN3C(=O)[C@@H]3CSSC[C@H](C(=O)NCC(=O)N[C@@H](CO)C(=O)NCC(=O)N[C@@H](CO)C(=O)N[C@@H](CC(=O)O)C(=O)O)NC(=O)[C@H](Cc4ccc(O)cc4)NC(=O)CNC(=O)[C@H](CC(N)=O)NC(=O)CNC(=O)[C@H](CCCNC(=N)N)NC(=O)[C@H](CSSC[C@H](NC(=O)[C@H](CCCCN)NC(=O)[C@H](CCCCN)NC(=O)[C@H](CC(C)C)NC1=O)C(=O)N[C@@H](CCCNC(=N)N)C(=O)N[C@@H](CCCNC(=N)N)C(=O)N[C@@H](CC(=O)O)C(=O)N[C@@H](CO)C(=O)N[C@@H](CC(=O)O)C(=O)N3)NC(=O)[C@H]([C@@H](C)CC)NC2=O | – | – | – | – | – | – | – | 96 µM | > 10 µM | > 10 µM | –
5 | CC[C@H](C)[C@@H]1NC(=O)[C@@H]2CSSC[C@H](NC(=O)[C@H](CCC(N)=O)NC(=O)CNC(=O)[C@@H](N)CCCCN)C(=O)N[C@@H](Cc3ccccc3)C(=O)N[C@@H](CCCNC(=N)N)C(=O)N[C@@H]([C@@H](C)CC)C(=O)N[C@@H](Cc3c[nH]c4ccccc34)C(=O)N[C@@H](CCCCN)C(=O)N[C@@H](CCCCN)C(=O)N[C@H]3CSSC[C@H](NC1=O)C(=O)N[C@@H](CCCNC(=N)N)C(=O)NCC(=O)N[C@@H](CC(N)=O)C(=O)NCC(=O)N[C@@H](Cc1ccc(O)cc1)C(=O)N[C@H](C(=O)NCC(=O)N[C@@H](CO)C(=O)NCC(=O)N[C@@H](CO)C(=O)N[C@@H](CC(=O)O)C(=O)O)CSSC[C@H](NC(=O)[C@H](CC(=O)O)NC(=O)[C@H](CO)NC(=O)[C@H](CC(=O)O)NC(=O)[C@H](CCCNC(=N)N)NC(=O)[C@H](CCCNC(=N)N)NC3=O)C(=O)N1CCC[C@H]1C(=O)NCC(=O)N[C@@H](C)C(=O)N2 | 0.49 µM | > 50 µM | > 100 µM | 4.54 µM | 6.24 µM | > 50 µM | > 50 µM | – | – | – | –
6 | CC[C@H](C)[C@@H]1NC(=O)[C@@H]2CSSC[C@H](NC(=O)[C@H](CCC(N)=O)NC(=O)CNC(=O)CN)C(=O)N[C@@H](Cc3ccccc3)C(=O)N[C@@H](CCCNC(=N)N)C(=O)N[C@@H]([C@@H](C)CC)C(=O)N[C@@H](CC(C)C)C(=O)N[C@@H](CCCCN)C(=O)N[C@@H](CCCCN)C(=O)N[C@H]3CSSC[C@H](NC1=O)C(=O)N[C@@H](CCCNC(=N)N)C(=O)NCC(=O)N[C@@H](CC(N)=O)C(=O)NCC(=O)N[C@@H](Cc1ccc(O)cc1)C(=O)N[C@H](C(=O)NCC(=O)N[C@@H](CO)C(=O)NCC(=O)N[C@@H](CO)C(=O)N[C@@H](CC(=O)O)C(=O)O)CSSC[C@H](NC(=O)[C@H](CC(=O)O)NC(=O)[C@H](CO)NC(=O)[C@H](CC(=O)O)NC(=O)[C@H](CCCNC(=N)N)NC(=O)[C@H](CCCNC(=N)N)NC3=O)C(=O)N1CCC[C@H]1C(=O)NCC(=O)N[C@@H](C)C(=O)N2 | 0.11 µM | > 10 µM | > 10 µM | 0.27 µM | 0.0069 µM | > 10 µM | > 10 µM | – | – | – | –
7 | CC(=O)N[C@@H](CCC(N)=O)C(=O)N[C@@H](CCCNC(=N)N)C(=O)N[C@@H](Cc1ccccc1)C(=O)N[C@H](C=O)CCCNC(=N)N (Ac-QRFR-aldehyde) | 0.18 µM | – | – | – | – | – | – | 0.57 µM | – | – | 3
8 | CC[C@H](C)[C@@H]1NC(=O)[C@H](CCCCN)NC(=O)[C@@H]2CCCN2C(=O)[C@H](NC(=O)[C@@H](NC(=O)CNC(=O)CN)C(C)C)CSSC[C@H]2NC(=O)[C@H](C)NC(=O)CNC(=O)[C@@H]3CCCN3C(=O)[C@@H]3CSSC[C@H](C(=O)NCC(=O)N[C@@H](CO)C(=O)NCC(=O)N[C@@H](CO)C(=O)N[C@@H](CC(=O)O)C(=O)O)NC(=O)[C@H](Cc4ccc(O)cc4)NC(=O)CNC(=O)[C@H](CC(N)=O)NC(=O)CNC(=O)[C@H](CCCNC(=N)N)NC(=O)[C@H](CSSC[C@H](NC(=O)[C@H](CCCCN)NC(=O)[C@H](CCCCN)NC(=O)[C@H](CC(C)C)NC1=O)C(=O)N[C@@H](CCCNC(=N)N)C(=O)N[C@@H](CCCNC(=N)N)C(=O)N[C@@H](CC(=O)O)C(=O)N[C@@H](CO)C(=O)N[C@@H](CC(=O)O)C(=O)N3)NC(=O)[C@H]([C@@H](C)CC)NC2=O | – | – | – | – | – | – | – | > 10 µM | > 10 µM | > 10 µM | –
9 | CC[C@H](C)[C@@H]1NC(=O)[C@@H]2CSSC[C@H](NC(=O)[C@H](CCC(N)=O)NC(=O)CNC(=O)CN)C(=O)N[C@@H](CO)C(=O)N[C@@H](CCCNC(=N)N)C(=O)N[C@@H]([C@@H](C)CC)C(=O)N[C@@H](CC(C)C)C(=O)N[C@@H](CCCCN)C(=O)N[C@@H](CCCCN)C(=O)N[C@H]3CSSC[C@H](NC1=O)C(=O)N[C@@H](CCCNC(=N)N)C(=O)NCC(=O)N[C@@H](CC(N)=O)C(=O)NCC(=O)N[C@@H](Cc1ccc(O)cc1)C(=O)N[C@H](C(=O)NCC(=O)N[C@@H](CO)C(=O)NCC(=O)N[C@@H](CO)C(=O)N[C@@H](CC(=O)O)C(=O)O)CSSC[C@H](NC(=O)[C@H](CC(=O)O)NC(=O)[C@H](CO)NC(=O)[C@H](CC(=O)O)NC(=O)[C@H](CCCNC(=N)N)NC(=O)[C@H](CCCNC(=N)N)NC3=O)C(=O)N1CCC[C@H]1C(=O)NCC(=O)N[C@@H](C)C(=O)N2 | 2.16 µM | > 10 µM | > 10 µM | > 10 µM | > 10 µM | > 10 µM | > 10 µM | – | – | – | –
